Measured values from PubChem BioAssay (NCI).
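Briefly, cells in 96-well plates were exposed to five compound concentrations for 48 h, and endpoints were estimated by linear interpolation. TGI: total growth inhibition.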

Assays:
Assay in all cases: DTP human tumour cell line panel, 48 h
MOLT-4 leukemia = system: MOLT-4 leukemia
NCI-H460 lung = system: NCI-H460 lung
786-0 renal = system: 786-0 renal
HOP-18 NSCLC = system: HOP-18 NSCLC
OVCAR-8 ovarian = system: OVCAR-8 ovarian
A549 NSCLC = system: A549 NSCLC
HCT-15 colon = system: HCT-15 colon
RXF 393 renal = system: RXF 393 renal
SN12C renal = system: SN12C renal
SK-MEL-5 melanoma = system: SK-MEL-5 melanoma
A498 renal = system: A498 renal
LOX IMVI melanoma = system: LOX IMVI melanoma
UACC-62 melanoma = system: UACC-62 melanoma
OVCAR-3 ovarian = system: OVCAR-3 ovarian
SW-620 colon = system: SW-620 colon
SNB-19 CNS = system: SNB-19 CNS
OVCAR-5 ovarian = system: OVCAR-5 ovarian
UO-31 renal = system: UO-31 renal
SF-295 CNS = system: SF-295 CNS
TK-10 renal = system: TK-10 renal
IGROV1 ovarian = system: IGROV1 ovarian
SK-MEL-28 melanoma = system: SK-MEL-28 melanoma
KM20L2 colon = system: KM20L2 colon
HOP-92 NSCLC = system: HOP-92 NSCLC
K-562 leukemia = system: K-562 leukemia
DMS 114 small cell lung = system: DMS 114 small cell lung
EKVX NSCLC = system: EKVX NSCLC
DLD-1 colon = system: DLD-1 colon
NCI-H522 lung = system: NCI-H522 lung
HT29 colon = system: HT29 colon
CAKI-1 renal = system: CAKI-1 renal
RPMI-8226 leukemia = system: RPMI-8226 leukemia
U251 CNS = system: U251 CNS
KM12 colon = system: KM12 colon
SK-MEL-2 melanoma = system: SK-MEL-2 melanoma
CCRF-CEM leukemia = system: CCRF-CEM leukemia
SNB-75 CNS = system: SNB-75 CNS
SF-268 CNS = system: SF-268 CNS
HOP-62 NSCLC = system: HOP-62 NSCLC
UACC-257 melanoma = system: UACC-257 melanoma
SK-OV-3 ovarian = system: SK-OV-3 ovarian
COLO 205 colon = system: COLO 205 colon
DMS 273 small cell lung = system: DMS 273 small cell lung
SNB-78 CNS = system: SNB-78 CNS
MALME-3M melanoma = system: MALME-3M melanoma
HCC-2998 colon = system: HCC-2998 colon
M19-MEL melanoma = system: M19-MEL melanoma
ACHN renal = system: ACHN renal
SF-539 CNS = system: SF-539 CNS
HL-60(TB) leukemia = system: HL-60(TB) leukemia
NCI-H23 lung = system: NCI-H23 lung
NCI-H226 lung = system: NCI-H226 lung
HCT-116 colon = system: HCT-116 colon
OVCAR-4 ovarian = system: OVCAR-4 ovarian
LXFL 529 NSCLC = system: LXFL 529 NSCLC
SR leukemia = system: SR leukemia
M14 melanoma = system: M14 melanoma

Measured: TGI

CCOc1ccc(/C=C/C(=O)c2sc(NNC(C)=O)nc2C)cc1
not listed: NCI-H226 lung | HCT-116 colon | OVCAR-4 ovarian | LXFL 529 NSCLC | SR leukemia | M14 melanoma
> 100 µM: all other assays above

O=C1N(c2ccccc2)C2(O)C(=O)c3ccccc3C2(O)N1c1ccccc1 (stereo unspecified)
not listed: HOP-92 NSCLC | HL-60(TB) leukemia
> 100 µM: all other assays above
